Experimental data published in US20010051602A1, “Methods for increasing ApoE levels for the treatment of neurodegenerative disease” (priority 1997, published 2001).
“And” between values parts separate entries of the source, which are not always exact repeats. Identical values can stand only once.

Columns and labels:
Alzheimer's disease [1] = experiment: clinical trial: Global Deterioration Scale; assay type: in vivo, human; parameters: Global Deterioration Scale, 3 months / Global Deterioration Scale, 6 months / Global Deterioration Scale, 3 months, Average / Global Deterioration Scale, 6 months, Average: scale not given here
Experimental: Neuropsychological Assessment: The Clinical Impression of Change (CIBIC-Plus) and the Global Deterioration Scale (GDS) were recorded at 3 and 6 months. The Clinical Impression of Change (CIBIC-Plus) consists of the holistic impression by the clinician of whether the patient has shown any change since baseline as rated on a seven point sale (marked, moderate, mild improvement, no change, or marked, moderate, mild decline). The Global Deterioration Scale rates clinically identifiable stages of dementia. […] The GDS test provides a description of the key features of AD progression. […] The GDS is calculated as the average of scores related to the performance in the following areas of attention and concentration, recent memory, past memory, orientation, and functioning and self care.

ApoE = experiment: in vivo effect of probucol on ApoE levels in murine tissues, immunoblot densitometry; conditions: mice; for ApoE G/Dens (% Peak) / ApoE G/Dens-DD / ApoE G/DxA (% Total): pooled
Experimental: To extend the foregoing in vitro studies, the following animal study was conducted. […] At the end of ten days, the animals were sacrificed and the brain tissue collected, rapidly dissected, and the hippocampi were isolated. The livers, tissue, and blood were also collected. Tissue homogenates from all ten animals were pooled and the ApoE levels in the different tissues were determined by immunoblot.

lipid peroxidation = experiment: clinical trial: lipid peroxidation in the CSF (TBARS); assay type: in vivo, human
Experimental: In order to assess the antioxidant properties of probucol we analyzed lipid peroxidation levels in the CSF of patients before and after one month of treatment with probucol (one month). In vitro lipid peroxidation was measured according to the method of Ohkawa et al. (Anal. Biochem., 95:351-358 (1979)) with some modifications. Briefly, cerebrospinal fluid samples from Alzheimer's disease patients were prepared in 20 volumes of phosphate buffer (pH=7) (95% N2, 5% CO2) with a Teflon homogenizer. After centrifugation (1000 g, 10 min., 2° C.), the supernatant was precipitated with trichloroacetic acid (72%) according to Brown et al. (Anal. Biochem., 189:136-139 (1989)). This procedure removed material such as non-lipid-derived malondialdehyde (MDA) that could interfere with lipid peroxidation measurement. After precipitation with trichloracetic acid and centrifugation (10000 g, 15 min., 2° C.), 100 μl of the supernatant containing human brain homogenates was used to measure MDA levels. These supernatants were incubated with 20 μl of SDS 10%, 150 μl of acetic acid 20% (pH 3.5), and 150 μl of thiobarbituric acid (TBA) (0.6% in 0.05 N NaOH) and heated at 100° C. for 60 min. This step was performed under a controlled atmosphere (95% N^2, 5% CO^2) in sealed vials to avoid formation of MDA during heating. At the end of the incubation, the reaction was stopped at 4° C. The MDA-TBA complex of TBARS (thiobarbituric acid reactive substances) was then extracted with 300 μl of butanol/pyridine (15:1) by strong shaking (for 30 sec.) followed by centrifugation (1000 g, 10 min., 4° C.).

Alzheimer's disease [2] = experiment: clinical trial: ADAS-Cog (70 point scale); assay type: in vivo, human
Experimental: Neuropsychological Assessment: The Alzheimer's Disease Assessment Scale, Cognitive Part (ADAS-Cog) (see Rosen et al., Am. J. Psychiatr., 141:1356-1364 (1984)) was used as an objective neuropsychological measure. It consists of a battery of neuropsychological tests for different cognitive functions. The battery comes to a single score with a maximum of 70 points and is administered in about 45 minutes to patients. A 117 point extended scale version of this test was also used (see Table 5). […] The ADAS includes both cognitive (ADAS-Cog) and non-cognitive (ADAS-Noncog) subscales and the tests components of memory, language, and behavior. […] We further assessed the cognitive functioning of these patients with the extended scale ADAS-Cog test.

[3] = average of patients, baseline average 4.7
[4] = Blood, 0.1 mg i.p. daily for ten days
[5] = Blood, 0.5 mg i.p. daily for ten days
[6] = Blood, 5.0 mg i.p. daily for ten days
[7] = Hippocampus, 0.1 mg i.p. daily for ten days
[8] = Hippocampus, 0.5 mg i.p. daily for ten days
[9] = Hippocampus, 5.0 mg i.p. daily for ten days
[10] = Liver, 0.1 mg i.p. daily for ten days
[11] = Liver, 0.5 mg i.p. daily for ten days
[12] = Liver, 5.0 mg i.p. daily for ten days
[13] = highest administered dose (5 mg), ten days
[14] = average of patients, baseline average 28.9
[15] = individual AD patient, higher score indicates poorer performance

## CC(C)(Sc1cc(C(C)(C)C)c(O)c(C(C)(C)C)c1)Sc1cc(C(C)(C)C)c(O)c(C(C)(C)C)c1 [probucol]
Alzheimer's disease [1]; at three and six months
  patient symptoms on the Global Deterioration Scale: relative stabilization
Alzheimer's disease [1]; [3]
  Global Deterioration Scale, 3 months, Average: 4.8
  Global Deterioration Scale, 6 months, Average: 5.3
Alzheimer's disease [1]; individual AD patient
  Global Deterioration Scale, 3 months: 5 (2×) and 7 and 5.5 and 4.5 and 1.5 and 8 and 3.25 and 3.5
  Global Deterioration Scale, 6 months: 6.5 and 7 and 5 and 6 and 1 and 8 and 3.5 and 5.5
ApoE; [4]
  ApoE G/Dens (% Peak): 70.886 % Peak
  ApoE G/Dens-DD: 0.2783
  ApoE G/DxA (% Total): 19.187 % Total
ApoE; [5]
  ApoE G/Dens (% Peak): 57.610 % Peak
  ApoE G/Dens-DD: 0.2262
  ApoE G/DxA (% Total): 14.885 % Total
ApoE; [6]
  ApoE G/Dens (% Peak): 45.847 % Peak
  ApoE G/Dens-DD: 0.1800
  ApoE G/DxA (% Total): 11.846 % Total
ApoE; [7]
  ApoE G/Dens (% Peak): 18.571 % Peak
  ApoE G/Dens-DD: 0.0729
  ApoE G/DxA (% Total): 4.570 % Total
ApoE; [8]
  ApoE G/Dens (% Peak): 14.958 % Peak
  ApoE G/Dens-DD: 0.0587
  ApoE G/DxA (% Total): 3.497 % Total
ApoE; [9]
  ApoE G/Dens (% Peak): 25.469 % Peak
  ApoE G/Dens-DD: 0.1000
  ApoE G/DxA (% Total): 5.954 % Total
ApoE; [10]
  ApoE G/Dens (% Peak): 21.386 % Peak
  ApoE G/Dens-DD: 0.0840
  ApoE G/DxA (% Total): 5.263 % Total
ApoE; [11]
  ApoE G/Dens (% Peak): 11.315 % Peak
  ApoE G/Dens-DD: 0.0444
  ApoE G/DxA (% Total): 2.506 % Total
ApoE; [12]
  ApoE G/Dens (% Peak): 8.268 % Peak
  ApoE G/Dens-DD: 0.0325
  ApoE G/DxA (% Total): 1.933 % Total
ApoE; [13]
  levels of ApoE in the blood, % of the control value: 60%
  levels of ApoE in the liver, % of the control value: 60%
ApoE; highest dose evaluated (5 mg), ten days
  levels of ApoE in the brain, % of the control value: approximately 150%
Lipid peroxidation; 1 month, average for eight patients
  Lipid Peroxidation, Change (% Baseline), average: 100.9 % Baseline
Lipid peroxidation; 1 month, individual AD patient
  Lipid Peroxidation, Change (% baseline): 100.3 % baseline and 97.4 % baseline and 94.8 % baseline and 97.5 % baseline and 104.2 % baseline and 92.8 % baseline and 103.8 % baseline and 116.1 % baseline
Lipid peroxidation; individual AD patient, average of 4-6 determinations
  Lipid Peroxidation, 1 month: 0.705 Fluorescence Units and 0.686 Fluorescence Units and 0.687 Fluorescence Units and 0.692 Fluorescence Units and 0.744 Fluorescence Units and 0.691 Fluorescence Units and 0.731 Fluorescence Units and 0.824 Fluorescence Units
Alzheimer's disease [2]; [14]
  ADAS-Cog (70 point scale) score, 3 months, Average: 29.5
  ADAS-Cog (70 point scale) score, 6 months, Average: 30.13
Alzheimer's disease [2]; [15]
  ADAS-Cog (70 point scale) score, 3 months: 37 and 41 and 22 and 18 and 27 and 29 and 34 and 28
  ADAS-Cog (70 point scale) score, 6 months: 40 (2×) and 44 and 16 and 17 and 25 and 36 and 23
